Common to all, as to type: physicochemical
Series [1] can be described thus: Light transmission at 580 nm (% T). The settings on record: 9% REF2 and 1% of the specified ester in 60:40 hydrogenated polydecene:DC245; 580 nm.
Series [2] is described as follows: DSC of gels: fibre dissolution temperature (FDT) and solubility of structurant. The settings on record: for Solubility of structurant at 25° C.: from DSC of gel, relative to benchmark REF 2; for FDT: gel heated at 5 K/min in DSC, peak temperature of the highest peak. The procedure:
In this Example the Fibre dissolution temperature (FDT) is measured in the DSC process described later herein, by observing when the fibres dissolve whilst the temperature of sample rises. FDT is taken to be the peak temperature of the highest peak.
In REF2 and REF3, the acyl substituents at the other seven cellobiose sites are nonanoyl.
Samples of gel (about 20 mg) were sealed in stainless steel capsules for DSC. An empty stainless steel capsule was used as the physical reference. The samples were subjected to the following temperature programme:
The sample was heated to 100° C. and held at 100° C. for 1 minute, in order to obtain an isotropic solution. The sample was then cooled at 5 K/min to −20° C. The sample was held at −20° C. for 1 minute. The sample is now a gel on the bottom of the sample capsule prepared in a reproducible manner. The gel was then heated at 5 K/min to 100° C. Data was also obtained with empty stainless steel pans as both physical sample and reference. This blank data was later subtracted from the sample data to remove any curvature in the base line.

Series [3] can be described thus: Visual assessment score (clarity of gel in 1 cm cuvette). The settings on record: for Clarity Visual (assessment score): 9% REF2 and 1% of the specified ester in 60:40 hydrogenated polydecene:DC245, scale −12 to 8; for Clarity Visual (appearance): 60:40 hydrogenated polydecene:DC245 gelled with 9% REF2 and 1% of the specified cellobiose ester. The method, boiled down: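 A gel in a 1 cm cuvette was laid on white paper printed with 21 graded sets of black figures, numbered −12 (largest, thickest) to 8 (smallest, thinnest). The score was the highest-numbered set read clearly through the gel, with higher meaning clearer.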

A short description of series [4]: Stability testing of gels: crystal growth visible by eye on storage at 37° C. The settings on record: for Observations: 9% of REF1 and 1% of additional structurant.
A short description of series [5]: Gelling of water-immiscible cosmetic liquids in 96 well glass micro-titre plate. The settings on record: for gelling of ISA: 150° C. 2.5 hours, cooled to ambient. The arrangement: key: gel; g4: gel after overnight (18 hrs) storage at 4° C.; g22: gel after overnight (18 hrs) storage at 22° C.; sg: soft gel; sg22: soft gel after overnight (18 hrs) storage at 22° C.; solution; *: the test at 4° C. was not carried out. The method, boiled down: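 Gel formation was scored by eye and by poking with a micro-spatula at three points: on cooling to room temperature, after 18 h at 18 °C, and after another 18 h at 4 °C. Before this, mixtures of cosmetic liquid with roughly 5% or 10% cellobiose ester were heated at 150 °C for 2.5 h.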

The mark [6] stands for this setting: REF2 to which the CHME structurant was added, after 12 days at 37° C.
[7] abbreviates: 5% cellobiose ester in Finsolv TN.
Where [8] appears, read: 5% cellobiose ester in Fluid AP.
Setting [9] is: 5% cellobiose ester in Mineral oil.
Where [10] appears, read: 5% cellobiose ester in Polydecene.
Setting [11] is: 10% cellobiose ester in Finsolv TN.
The mark [12] stands for this setting: 10% cellobiose ester in Fluid AP.
Where [13] appears, read: 10% cellobiose ester in Mineral oil.
[14] abbreviates: 10% cellobiose ester in Polydecene.

This note sets out measurements from US6974804B2, “Esters” (Unilever Home & Personal Care USA, division of Conopco, Inc., priority 2000, dated 2005).

For the compound `CCCCCCCCC(=O)OCC1OC(OC2C(COC(=O)CCCCCCCC)OC(OC(=O)c3ccccc3)C(OC(=O)CCCCCCCC)C2OC(=O)CCCCCCCC)C(OC(=O)CCCCCCCC)C(OC(=O)CCCCCCCC)C1OC(=O)CCCCCCCC` (mixture of isomers) [Ex 1.1], in series [1], the “Clarity % T” value is recorded as 55%. In addition, the “Solubility of structurant at 25° C.” value in series [2] is given as “Less soluble. No”. The compound also registered an FDT in series [2] of 64 °C. Also, the “Clarity Visual (assessment score)” value in series [3] is “translucent 5”. In addition, the “Clarity Visual (appearance)” value in series [3] is listed as “transparent/”. In addition, in series [4] (after 11 days at 37° C.), the Observations entry is “Slight crystal growth on surface after 11”. Moreover, the Observation result in series [4] (setting [6]) is “No crystals after 12 days at 37 °C”. Also, the “gelling of DC556” value in series [5] (5% cellobiose ester in DC556) and in series [5] (10% cellobiose ester in DC556) was “gel” each time. The “gelling of Finsolv TN” value is recorded as “g4” in series [5] (setting [7]) and “gel” in series [5] (setting [11]). Also, the “gelling of Fluid AP” value in series [5] (setting [8]) and in series [5] (setting [12]) was “gel” each time. The “gelling of IPM” value is “g4” in series [5] (5% cellobiose ester in IPM) and “gel” in series [5] (10% cellobiose ester in IPM). Moreover, the “gelling of ISA” value in series [5] (5% cellobiose ester in ISA) is on record as “g22”; in series [5] (10% cellobiose ester in ISA), “gel”. In addition, the “gelling of Mineral oil” value in series [5] (setting [9]) and in series [5] (setting [13]) was “gel” throughout. Besides, the “gelling of Polydecene” value in series [5] (setting [10]) and in series [5] (setting [14]) was “gel” in each case.
With `CCCCCCCCC(=O)OCC1OC(OC2C(COC(=O)CCCCCCCC)OC(OC(=O)c3ccc4ccccc4c3)C(OC(=O)CCCCCCCC)C2OC(=O)CCCCCCCC)C(OC(=O)CCCCCCCC)C(OC(=O)CCCCCCCC)C1OC(=O)CCCCCCCC` (mixture of isomers) [Ex 1.3], the “Clarity % T” value in series [1] was determined as 58%. In addition, in series [2], the “Solubility of structurant at 25° C.” value is “Less soluble. No”. Further, the FDT in series [2] is 63 °C. Besides, the “Clarity Visual (assessment score)” value in series [3] amounted to 4. The “Clarity Visual (appearance)” value in series [3] is given as “transparent”. In series [4] (after 12 days at 37° C.), the Observations entry is “No crystals after 12 days at 37 °C”. The Observation result in series [4] (setting [6]) is “No crystals after 12 days at 37 °C”. Moreover, the “gelling of DC556” value in series [5] (5% cellobiose ester in DC556) and in series [5] (10% cellobiose ester in DC556) was “gel” in each case. Moreover, the results for the “gelling of Finsolv TN” value in series [5] (setting [7]) and in series [5] (setting [11]) were “sol” and “g4”, respectively. In addition, the “gelling of Fluid AP” value in series [5] (setting [8]) and in series [5] (setting [12]) was “gel” in each case. Moreover, the results for the “gelling of IPM” value in series [5] (5% cellobiose ester in IPM) and in series [5] (10% cellobiose ester in IPM) were “g4” and “g22”, respectively. Further, the “gelling of ISA” value in series [5] (5% cellobiose ester in ISA) and in series [5] (10% cellobiose ester in ISA) was “gel” throughout. Moreover, the “gelling of Mineral oil” value in series [5] (setting [9]) and in series [5] (setting [13]) was “g22” each time. The “gelling of Polydecene” value in series [5] (setting [10]) and in series [5] (setting [14]) was “gel” in each case.
Turning to `CCCCCCCCC(=O)OCC1OC(OC2C(COC(=O)CCCCCCCC)OC(OC(C)=O)C(OC(=O)CCCCCCCC)C2OC(=O)CCCCCCCC)C(OC(=O)CCCCCCCC)C(OC(=O)CCCCCCCC)C1OC(=O)CCCCCCCC` (mixture of isomers) [Ex 1.7], the “Clarity % T” value in series [1] was 52%. The “Solubility of structurant at 25° C.” value in series [2] is “Less soluble. No”. In series [2], this compound displayed an FDT of 72 °C. Further, the “Clarity Visual (assessment score)” value in series [3] is more than 8. In series [3], the “Clarity Visual (appearance)” value is on record as “transparent”. In addition, the Observations result in series [4] (after 13 days at 37° C.) was “Slight crystal growth on surface after 13”. For the same compound, the Observation result in series [4] (10% structurant in 60:40 Panalene L14E:DC245, after 17 days at 37° C.) is on record as “No crystals after 17 days”; in series [4] (REF2 to which the CHME structurant was added, after 13 days at 37° C.), “Slight very fine crystal growth after 13”. Moreover, the “gelling of DC556” value in series [5] (5% cellobiose ester in DC556) and in series [5] (10% cellobiose ester in DC556) was “gel” in each case. Moreover, the “gelling of Fluid AP” value in series [5] (setting [8]) and in series [5] (setting [12]) was “gel” in each case. Also, the “gelling of ISA” value in series [5] (5% cellobiose ester in ISA) is given as “sg”; in series [5] (10% cellobiose ester in ISA) it was “gel”. Moreover, the results for the “gelling of Mineral oil” value in series [5] (setting [9]) and in series [5] (setting [13]) were “sg” and “gel”, respectively. Further, the “gelling of Polydecene” value in series [5] (setting [10]) and in series [5] (setting [14]) was “gel” throughout.
